Laboratory results as given in PubChem BioAssay (NCI).
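Cells were grown in 96-well plates and exposed to each compound for 48 hours at five concentrations; endpoints were interpolated linearly between bracketing concentrations, or set to the highest concentration if not reached. The concentration for 50% growth inhibition is given as GI50. TGI: total growth inhibition.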

Test system: COLO 205 colon
Assay: growth of human tumour cells (NCI), 48 h

Row | SMILES | GI50 [µM] | TGI [µM]
1 | O=C(NC[C@H](O)CN1CCc2ccccc2C1)c1cc(NC2COC2)ncn1 | 13.4 | > 100
2 | COc1cc(Cl)cc(-c2nn(-c3cccc(NC(=O)c4ccc(N5CCOCC5)c(C(F)(F)F)c4)c3)cc2-c2ccncc2)c1 | 22.2 | > 100
3 | OC[C@H]1O[C@@H]2O[C@@](COCc3ccccc3)([C@H](OCc3ccccc3)[C@H]2O)[C@@H]1OCc1ccccc1 | – | 35
4 | Nc1ncc(-c2ccc3ncnc(Nc4ccc(F)c(Cl)c4)c3c2)cn1 | 2.5 | 11.2

Test system: NCI-H460 lung
Assay: growth of human tumour cells (NCI), 48 h

Row | SMILES | GI50 [µM] | TGI [µM]
5 | O=C(NC[C@H](O)CN1CCc2ccccc2C1)c1cc(NC2COC2)ncn1 | 3.98 | 21.1
6 | COc1cc(Cl)cc(-c2nn(-c3cccc(NC(=O)c4ccc(N5CCOCC5)c(C(F)(F)F)c4)c3)cc2-c2ccncc2)c1 | 4.8 | > 100
7 | OC[C@H]1O[C@@H]2O[C@@](COCc3ccccc3)([C@H](OCc3ccccc3)[C@H]2O)[C@@H]1OCc1ccccc1 | – | 34.2
8 | Nc1ncc(-c2ccc3ncnc(Nc4ccc(F)c(Cl)c4)c3c2)cn1 | 1.44 | 2.96

Test system: CAKI-1 renal
Assay: growth of human tumour cells (NCI), 48 h

Row | SMILES | GI50 [µM] | TGI [µM]
9 | O=C(NC[C@H](O)CN1CCc2ccccc2C1)c1cc(NC2COC2)ncn1 | 26.4 | > 100
10 | COc1cc(Cl)cc(-c2nn(-c3cccc(NC(=O)c4ccc(N5CCOCC5)c(C(F)(F)F)c4)c3)cc2-c2ccncc2)c1 | 4.4 | > 100
11 | OC[C@H]1O[C@@H]2O[C@@](COCc3ccccc3)([C@H](OCc3ccccc3)[C@H]2O)[C@@H]1OCc1ccccc1 | – | 29.8
12 | Nc1ncc(-c2ccc3ncnc(Nc4ccc(F)c(Cl)c4)c3c2)cn1 | 0.367 | 4.02

Test system: 786-0 renal
Assay: growth of human tumour cells (NCI), 48 h

Row | SMILES | GI50 [µM] | TGI [µM]
13 | O=C(NC[C@H](O)CN1CCc2ccccc2C1)c1cc(NC2COC2)ncn1 | 12.6 | 41.9
14 | COc1cc(Cl)cc(-c2nn(-c3cccc(NC(=O)c4ccc(N5CCOCC5)c(C(F)(F)F)c4)c3)cc2-c2ccncc2)c1 | 3.23 | 29.8
15 | OC[C@H]1O[C@@H]2O[C@@](COCc3ccccc3)([C@H](OCc3ccccc3)[C@H]2O)[C@@H]1OCc1ccccc1 | – | 30.7

Test system: SNB-19 CNS
Assay: growth of human tumour cells (NCI), 48 h

Row | SMILES | GI50 [µM] | TGI [µM]
16 | O=C(NC[C@H](O)CN1CCc2ccccc2C1)c1cc(NC2COC2)ncn1 | 11.9 | 98
17 | COc1cc(Cl)cc(-c2nn(-c3cccc(NC(=O)c4ccc(N5CCOCC5)c(C(F)(F)F)c4)c3)cc2-c2ccncc2)c1 | > 100 | > 100
18 | OC[C@H]1O[C@@H]2O[C@@](COCc3ccccc3)([C@H](OCc3ccccc3)[C@H]2O)[C@@H]1OCc1ccccc1 | – | 32.4
19 | Nc1ncc(-c2ccc3ncnc(Nc4ccc(F)c(Cl)c4)c3c2)cn1 | 3.53 | 23.5

Test system: EKVX NSCLC
Assay: growth of human tumour cells (NCI), 48 h

Row | SMILES | GI50 [µM] | TGI [µM]
20 | O=C(NC[C@H](O)CN1CCc2ccccc2C1)c1cc(NC2COC2)ncn1 | 24.8 | > 100
21 | OC[C@H]1O[C@@H]2O[C@@](COCc3ccccc3)([C@H](OCc3ccccc3)[C@H]2O)[C@@H]1OCc1ccccc1 | – | 28
22 | Nc1ncc(-c2ccc3ncnc(Nc4ccc(F)c(Cl)c4)c3c2)cn1 | 0.252 | 38

Test system: RXF 393 renal
Assay: growth of human tumour cells (NCI), 48 h

Row | SMILES | GI50 [µM] | TGI [µM]
23 | O=C(NC[C@H](O)CN1CCc2ccccc2C1)c1cc(NC2COC2)ncn1 | 2.31 | 12.9
24 | COc1cc(Cl)cc(-c2nn(-c3cccc(NC(=O)c4ccc(N5CCOCC5)c(C(F)(F)F)c4)c3)cc2-c2ccncc2)c1 | 0.83 | 23.9
25 | Nc1ncc(-c2ccc3ncnc(Nc4ccc(F)c(Cl)c4)c3c2)cn1 | 0.932 | 3.5

Test system: OVCAR-5 ovarian
Assay: growth of human tumour cells (NCI), 48 h

Row | SMILES | GI50 [µM] | TGI [µM]
26 | O=C(NC[C@H](O)CN1CCc2ccccc2C1)c1cc(NC2COC2)ncn1 | 36.8 | > 100
27 | COc1cc(Cl)cc(-c2nn(-c3cccc(NC(=O)c4ccc(N5CCOCC5)c(C(F)(F)F)c4)c3)cc2-c2ccncc2)c1 | 32.5 | > 100
28 | OC[C@H]1O[C@@H]2O[C@@](COCc3ccccc3)([C@H](OCc3ccccc3)[C@H]2O)[C@@H]1OCc1ccccc1 | – | 31.3
29 | Nc1ncc(-c2ccc3ncnc(Nc4ccc(F)c(Cl)c4)c3c2)cn1 | 1.02 | 3.69

Test system: ACHN renal
Assay: growth of human tumour cells (NCI), 48 h

Row | SMILES | GI50 [µM] | TGI [µM]
30 | O=C(NC[C@H](O)CN1CCc2ccccc2C1)c1cc(NC2COC2)ncn1 | 25.1 | > 100
31 | COc1cc(Cl)cc(-c2nn(-c3cccc(NC(=O)c4ccc(N5CCOCC5)c(C(F)(F)F)c4)c3)cc2-c2ccncc2)c1 | 7.31 | > 100
32 | OC[C@H]1O[C@@H]2O[C@@](COCc3ccccc3)([C@H](OCc3ccccc3)[C@H]2O)[C@@H]1OCc1ccccc1 | – | 31.1
33 | Nc1ncc(-c2ccc3ncnc(Nc4ccc(F)c(Cl)c4)c3c2)cn1 | 0.387 | 2.05

Test system: SK-MEL-28 melanoma
Assay: growth of human tumour cells (NCI), 48 h

Row | SMILES | GI50 [µM] | TGI [µM]
34 | O=C(NC[C@H](O)CN1CCc2ccccc2C1)c1cc(NC2COC2)ncn1 | 31.6 | > 100
35 | COc1cc(Cl)cc(-c2nn(-c3cccc(NC(=O)c4ccc(N5CCOCC5)c(C(F)(F)F)c4)c3)cc2-c2ccncc2)c1 | 14.8 | > 100
36 | Nc1ncc(-c2ccc3ncnc(Nc4ccc(F)c(Cl)c4)c3c2)cn1 | 3.08 | 17.6

Test system: HCT-15 colon
Assay: growth of human tumour cells (NCI), 48 h

Row | SMILES | GI50 [µM] | TGI [µM]
37 | O=C(NC[C@H](O)CN1CCc2ccccc2C1)c1cc(NC2COC2)ncn1 | 22.7 | > 100
38 | COc1cc(Cl)cc(-c2nn(-c3cccc(NC(=O)c4ccc(N5CCOCC5)c(C(F)(F)F)c4)c3)cc2-c2ccncc2)c1 | 3.25 | > 100
39 | OC[C@H]1O[C@@H]2O[C@@](COCc3ccccc3)([C@H](OCc3ccccc3)[C@H]2O)[C@@H]1OCc1ccccc1 | – | 36.1
40 | Nc1ncc(-c2ccc3ncnc(Nc4ccc(F)c(Cl)c4)c3c2)cn1 | 2.54 | > 100

Test system: SF-539 CNS
Assay: growth of human tumour cells (NCI), 48 h

Row | SMILES | GI50 [µM] | TGI [µM]
41 | O=C(NC[C@H](O)CN1CCc2ccccc2C1)c1cc(NC2COC2)ncn1 | 5.09 | 45.6
42 | COc1cc(Cl)cc(-c2nn(-c3cccc(NC(=O)c4ccc(N5CCOCC5)c(C(F)(F)F)c4)c3)cc2-c2ccncc2)c1 | 3.74 | > 100
43 | OC[C@H]1O[C@@H]2O[C@@](COCc3ccccc3)([C@H](OCc3ccccc3)[C@H]2O)[C@@H]1OCc1ccccc1 | – | 32.9
44 | Nc1ncc(-c2ccc3ncnc(Nc4ccc(F)c(Cl)c4)c3c2)cn1 | 1.52 | 2.93

Test system: PC-3 prostate
Assay: growth of human tumour cells (NCI), 48 h

Row | SMILES | GI50 [µM] | TGI [µM]
45 | O=C(NC[C@H](O)CN1CCc2ccccc2C1)c1cc(NC2COC2)ncn1 | 5.92 | 96.3
46 | COc1cc(Cl)cc(-c2nn(-c3cccc(NC(=O)c4ccc(N5CCOCC5)c(C(F)(F)F)c4)c3)cc2-c2ccncc2)c1 | 3.3 | > 100
47 | OC[C@H]1O[C@@H]2O[C@@](COCc3ccccc3)([C@H](OCc3ccccc3)[C@H]2O)[C@@H]1OCc1ccccc1 | – | 28
48 | Nc1ncc(-c2ccc3ncnc(Nc4ccc(F)c(Cl)c4)c3c2)cn1 | 2.48 | 53.6

Test system: HCC-2998 colon
Assay: growth of human tumour cells (NCI), 48 h

Row | SMILES | GI50 [µM] | TGI [µM]
49 | O=C(NC[C@H](O)CN1CCc2ccccc2C1)c1cc(NC2COC2)ncn1 | 15.4 | 29.8
50 | COc1cc(Cl)cc(-c2nn(-c3cccc(NC(=O)c4ccc(N5CCOCC5)c(C(F)(F)F)c4)c3)cc2-c2ccncc2)c1 | 6.06 | 74.7
51 | Nc1ncc(-c2ccc3ncnc(Nc4ccc(F)c(Cl)c4)c3c2)cn1 | 22.2 | > 100

Test system: HL-60(TB) leukemia
Assay: growth of human tumour cells (NCI), 48 h

Row | SMILES | GI50 [µM] | TGI [µM]
52 | O=C(NC[C@H](O)CN1CCc2ccccc2C1)c1cc(NC2COC2)ncn1 | 20.3 | 60.5
53 | COc1cc(Cl)cc(-c2nn(-c3cccc(NC(=O)c4ccc(N5CCOCC5)c(C(F)(F)F)c4)c3)cc2-c2ccncc2)c1 | 4.19 | 33.2
54 | OC[C@H]1O[C@@H]2O[C@@](COCc3ccccc3)([C@H](OCc3ccccc3)[C@H]2O)[C@@H]1OCc1ccccc1 | – | 38.2
